Experiment [1] deals with T1, Bovine LOX (Bos taurus, UniProt P33072).
T1 sequence (P33072 170-418): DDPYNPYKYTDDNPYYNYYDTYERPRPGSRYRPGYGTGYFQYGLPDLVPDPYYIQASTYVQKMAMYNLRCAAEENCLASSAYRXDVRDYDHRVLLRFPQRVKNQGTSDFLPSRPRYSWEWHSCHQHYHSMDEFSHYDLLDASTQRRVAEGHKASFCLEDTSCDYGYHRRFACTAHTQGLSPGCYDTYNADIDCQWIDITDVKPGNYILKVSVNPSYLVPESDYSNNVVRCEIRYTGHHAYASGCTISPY
The experiment is described as follows: LOX inhibition, Amplex Red oxidation assay. It is filed as biochemical. Conditions: for IC50: incubation with enzyme 30 min at 37° C, read-out: Bovine LOX Activity IC50. Here is the method:
(§1) LOX and LOXL protein family members can be acquired as recombinant active proteins from commercial sources, or extracted from animal tissues like bovine aorta, tendons, pig skin; or prepared from cell cultures. […] The assay was developed using either 384 or 96 well format. Briefly, in a standard black, clear bottom 384 well plate assay 25 μL of a dilution of any of the isoenzymes and orthologues in 1.2 M urea, 50 mM sodium borate buffer (pH 8.2) were added into each well in the presence of 1 μM mofegiline and 0.5 mM pargyline (to inhibit SSAO and MAO-B and MAO-A, respectively; not necessary if the enzyme is from a recombinant or purified form). Test compounds were dissolved in DMSO and tested in a Concentration Response Curve (CRC) with 11 data points, typically in the micromolar or nanomolar range after incubation with the enzyme for 30 min at 37° C. 25 μL of a reaction mixture containing twice the KM concentration of putrescine (Sigma Aldrich, e.g. 20 mM for LOX and LOXL1 or 10 mM for LOXL2 and 4 mM for LOXL3 and LOXL4), 120 μM Amplex Red (Sigma Aldrich) and 1.5 U/mL horseradish peroxidase (Sigma Aldrich) prepared in 1.2 M urea, 50 mM sodium borate buffer (pH 8.2) were then added to the corresponding wells. The above volumes were doubled in the case of 96 wells plate. The fluorescence (RFU) was read every 2.5 min for 30 min at […] 37° C., excitation 565 nm and emission 590 (Optima; BMG labtech). The slope of the kinetics for each well was calculated using MARS data analysis software (BMG labtech) and this value was used to deduce the IC50 value (Dotmatics). The ability of the inventive compounds to inhibit the amine oxidase activity of LOX and other family members is shown in Table 4.

For experiment [2], the target named is T2, Human recombinant LOXL2 (Homo sapiens, UniProt Q9Y4K0).
T2 sequence (Q9Y4K0 26-774): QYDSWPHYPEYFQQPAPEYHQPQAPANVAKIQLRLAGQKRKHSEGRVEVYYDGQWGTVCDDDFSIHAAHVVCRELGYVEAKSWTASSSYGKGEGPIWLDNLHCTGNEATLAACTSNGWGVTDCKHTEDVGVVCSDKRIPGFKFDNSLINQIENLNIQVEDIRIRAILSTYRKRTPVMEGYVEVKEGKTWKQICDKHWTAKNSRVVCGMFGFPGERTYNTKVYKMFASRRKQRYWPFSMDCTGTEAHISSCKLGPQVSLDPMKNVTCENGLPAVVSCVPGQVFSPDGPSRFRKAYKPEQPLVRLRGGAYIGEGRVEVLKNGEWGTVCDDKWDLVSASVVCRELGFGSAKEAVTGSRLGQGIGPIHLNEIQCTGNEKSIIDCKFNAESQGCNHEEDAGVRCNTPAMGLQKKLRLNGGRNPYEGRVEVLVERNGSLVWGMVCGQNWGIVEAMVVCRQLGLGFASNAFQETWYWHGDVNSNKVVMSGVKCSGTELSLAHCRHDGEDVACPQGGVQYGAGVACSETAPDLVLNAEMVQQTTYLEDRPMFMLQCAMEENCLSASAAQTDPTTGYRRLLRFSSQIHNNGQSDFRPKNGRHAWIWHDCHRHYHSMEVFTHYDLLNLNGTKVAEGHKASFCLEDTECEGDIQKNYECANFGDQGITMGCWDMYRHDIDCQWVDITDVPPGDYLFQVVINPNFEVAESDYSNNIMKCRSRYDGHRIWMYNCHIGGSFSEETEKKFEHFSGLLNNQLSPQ
The experiment in a line: LOXL2 inhibition, Amplex Red oxidation assay. It counts as biochemical. The conditions noted are these: incubation with enzyme 30 min at 37° C; read-out: Human recombinant LOXL2 Activity IC50. How it is done:
as §1

SMILES strings stand for the structures. Structures can show the parent of a compound that is named as a salt. A value given as a limit tells only on which side of the number the result lay.

On to `NC/C=C(/F)C(F)(F)S(=O)(=O)c1ccccc1` [Compound 1(E)], for which the “inhibitory activity (in words)” value in experiment [1] (LOX / LOXL preparations, compared with Compound 1) is on record as “significantly reduced inhibitory activity”. Further, the IC50 (in general, the point on the concentration scale where inhibition reaches its midpoint) in experiment [1] was determined as 23.1 µM; in experiment [2], 2.1 µM.

Take `CS(=O)(=O)c1cccc(Oc2cccc(S(=O)(=O)C(F)(F)/C(F)=C/CN)c2)c1` [Compound 20, (Z)-3,4,4-trifluoro-4-((3-(3-(methylsulfonyl)phenoxy)phenyl)sulfonyl)but-2-en-1-amine]: the IC50 in experiment [1] was 4.4 µM.

Consider `Cc1cccc(S(=O)(=O)C(F)(F)/C(F)=C/CN)c1` [Compound 13, (Z)-3,4,4-trifluoro-4-(m-tolylsulfonyl)but-2-en-1-amine], for which the IC50 came to 3.9 µM in experiment [1] and 0.5 µM in experiment [2].

For `NC/C=C(\F)C(F)(F)S(=O)(=O)c1ccccc1O` [Compound 11, (Z)-2-((4-amino-1,1,2-trifluorobut-2-en-1-yl)sulfonyl)phenol], the values for the IC50 in experiment [1] and in experiment [2] were over 30 µM and 1.7 µM, respectively.

Take `Cc1occc1S(=O)(=O)C(F)(F)/C(F)=C/CN` [Compound 15, (Z)-3,4,4-trifluoro-4-((2-methylfuran-3-yl)sulfonyl)but-2-en-1-amine]: the values for the IC50 in experiment [1] and in experiment [2] were 5.9 µM and 0.7 µM, respectively.

For the molecule `CS(=O)(=O)c1cccc(S(=O)(=O)C(F)(F)/C(F)=C/CN)c1` [Compound 3, (Z)-3,4,4-trifluoro-4-((3-(methylsulfonyl)phenyl)sulfonyl)but-2-en-1-amine], the figures for the IC50 in experiment [1] and in experiment [2] were 11.1 µM and 0.7 µM, respectively.

Consider `[2H]c1c([2H])c([2H])c(S(=O)(=O)C(F)(F)/C(F)=C/CN)c([2H])c1[2H]` [Compound 18, (Z)-3,4,4-trifluoro-4-((phenyl-d5)sulfonyl)but-2-en-1-amine], for which the results for the IC50 in experiment [1] and in experiment [2] were 3.6 µM and 0.7 µM, respectively.

With `NC/C=C(\F)C(F)(F)S(=O)(=O)c1ccccc1N1CCS(=O)(=O)CC1` [Compound 7, (Z)-4-(2-((4-amino-1,1,2--trifluorobut-2-en-1-yl)sulfonyl)phenyl)thiomorpholine 1,1-dioxide, hydrochloride], the IC50 in experiment [1] came out at 22.8 µM; in experiment [2] it was 2 µM.

Source of the values: patent US20220251036A1, “DIFLUOROHALOALLYLAMINE SULFONE DERIVATIVE INHIBITORS OF LYSYL OXIDASES, METHODS OF PREPARATION, AND USES THEREOF” (PHARMAXIS LTD., priority 2019, published 2022).
